In general, IC50 refers to the concentration at which inhibition is half-maximal.

The experiment in a line: Ability to inhibit blood platelet aggregation of human platelet-rich plasma induced by TP-receptor agonist U 46619.
In turn, `O=C(O)CCC/C=C1/C[C@H]2C[C@@H](O)[C@H](C=NNC(=O)Nc3ccccc3)[C@H]2C1` showed an IC50 of 0.1 µM.

`O=C(O)CCC/C=C1\C[C@H]2C[C@@H](O)[C@H](C=NNC(=O)Nc3ccc(Cl)c(Cl)c3)[C@H]2C1` displayed an IC50 of 0.2 µM.

For the molecule `O=C(O)CCC/C=C1/C[C@H]2CC[C@H](C=NNC(=O)Nc3ccc(Cl)c(Cl)c3)[C@H]2C1`, the IC50 was 1.8 µM.

Regarding `O=C(O)CC/C=C1\C[C@H]2C[C@@H](O)[C@H](C=NNC(=O)Nc3cccc(Cl)c3)[C@H]2C1`, the IC50 is 5.2 µM.

Take `O=C(O)CCC/C=C1\C[C@H]2C[C@@H](O)[C@H](C=NNC(=O)Nc3cccc(Cl)c3)[C@H]2C1`: the IC50 was 0.13 µM.

In turn, `O=C(O)CCC/C=C1\C[C@H]2CC[C@H](C=NNC(=O)Nc3ccc(Cl)c(Cl)c3)[C@H]2C1` came in with a concentration for half-maximal inhibition (IC50) of 9 µM.

In turn, `O=C(O)COC/C=C1\C[C@H]2C[C@@H](O)[C@H](C=NNC(=O)Nc3ccccc3)[C@H]2C1` came in with a half-maximal inhibitory concentration (IC50) of 6 µM.

As for `O=C(O)COC/C=C1/C[C@H]2C[C@@H](O)[C@H](C=NNC(=O)Nc3ccccc3)[C@H]2C1`, the IC50 was determined as 1.4 µM.

As for `O=C(O)CCC/C=C1/CC2CCC([CH+][N-]NC(=O)Nc3ccc([N+](=O)[O-])cc3)C2C1` (stereo unspecified), the 50% inhibitory concentration (IC50) amounted to 0.58 µM.

Turning to `O=C(O)CCC/C=C1/CC2CC(O)C([CH+][N-]NC(=O)Nc3ccc([N+](=O)[O-])cc3)C2C1` (stereo unspecified), the 50% inhibitory concentration (IC50) came out at 0.05 µM.

In the case of `O=C(O)CCC/C=C1/C[C@H]2CC[C@H](C=NNC(=O)Nc3ccccc3)[C@H]2C1`, the IC50 amounted to 2.3 µM.

In the case of `O=C(O)CC/C=C1\CC2CC(O)C([CH+][N-]NC(=O)Nc3ccc([N+](=O)[O-])cc3)C2C1` (stereo unspecified), the IC50 was determined as 0.52 µM.

Turning to `O=C(O)CCC/C=C1\C[C@H]2CC[C@H](C=NNC(=O)Nc3ccccc3)[C@H]2C1`, the half-maximal inhibitory concentration (IC50) worked out at 12 µM.

`O=C(O)CC/C=C1\C[C@H]2C[C@@H](O)[C@H](C=NNC(=O)Nc3ccccc3)[C@H]2C1` showed an IC50 of 26 µM.

`O=C(O)CCC/C=C1\C[C@H]2CC[C@H](C=NNC(=O)Nc3cccc(Cl)c3)[C@H]2C1` displayed a half-maximal inhibitory concentration (IC50) of 6.5 µM.

Consider `O=C(O)COC/C=C1\C[C@H]2C[C@@H](O)[C@H](C=NNC(=O)Nc3cccc(Cl)c3)[C@H]2C1`, for which the concentration for half-maximal inhibition (IC50) was 1.6 µM.

Source of the values: BindingDB's records for doi:10.1016/S0960-894X(01)80876-3 (1993).
